Columns and labels:
high risk women = settings: versus placebo; cited from earlier work
[1] = test system: women at increased risk of preterm delivery; assay: PREMET subgroup providing saliva samples: metronidazole versus placebo; type: in vivo, human; settings: 17 women on metronidazole vs 7 on placebo (36.4 weeks), p=0.73, no significant difference
Text: A group of women at increased risk of preterm delivery participating in a study to assess the potential benefit of metronidazole in the prevention of preterm delivery (The PREMET study') provided saliva specimens from 24 weeks of gestation until 34 weeks or delivery in order to interrogate further the association between the steroid hormone profile and gestational age at delivery.
In the PREMET study 892 women with singleton pregnancies, who had at least one risk factor for preterm delivery, were recruited between 23^+0 and 24^+6 weeks over a four and a half year period.^1 Eligibility included singleton pregnancy with a history of preterm birth or preterm prelabour rupture of the membranes before 37 completed weeks of gestation, previous late miscarriage, uterine anatomical abnormality, cervical surgery prior to the index pregnancy or current cervical cerclage. Women were screened for cervico-vaginal fetal fibronectin (fFN) at 24 and 27 weeks gestation. Those who were fFN positive (≧50 ng/mL) were randomised to receive a one week course of metronidazole or placebo.
Weekly saliva samples, provided from 24 weeks of gestation until 34 weeks or delivery, were analysed for saliva E3 and progesterone by radioimmunoassay as previously described.^3 Briefly, aliquots (100 μL) of saliva were mixed with 50 μL sodium carbonate solution pH 10.5 and extracted with 10 volumes of diethyl ether. […]

[2] = test system: women at increased risk of preterm delivery; settings: whole PREMET study, fFN positive women, one week course; cited from earlier work

Row | Compound | benefit of the intervention (high risk women) | gestational age at delivery [1] [weeks] | preterm delivery associated with treatment [2]
1 | CCCCCC(=O)O[C@]1(C(C)=O)CC[C@H]2[C@@H]3CCC4=CC(=O)CC[C@]4(C)[C@H]3CC[C@@]21C [17α hydroxyprogesterone caproate] | significant benefit |  | 
2 | Cc1ncc([N+](=O)[O-])n1CCO [metronidazole] |  | 35.6 | small but significant increase
